Measurements: ChEMBL document CHEMBL1201862, “PubChem BioAssay data set” (2004)
The source made the active and inactive calls.

How the values were obtained:
[1] = inhibitors of intracellular T. cruzi replication, confirmation, NIH3T3 host cells, beta-gal luminescence (AID 2044); type: functional, cell-based;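 note: intracellular parasites grown in NIH/3T3 mouse fibroblasts as host cells; luminescent beta-galactosidase reporter signal from transgenic T. cruzi replicating inside host cells; inhibitors lower the luminescence signal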
[2] = cytotoxicity toward NIH3T3 fibroblasts, dose response, counter-screen, cell-based, ATP luminescence, mouse fibroblasts (AID 2010); type: functional;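 note: cells exposed to compound for about 90 hours before reading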
Cytochrome P450 2C19 = Cytochrome P450 2C19 (Homo sapiens, UniProt P33261); assay: Cytochrome panel assay with activity outcomes. Panel member name: p450-cyp2c19 Compounds with AC50 equal or less than 10 uM are considered active; type: functional
Sequence of Cytochrome P450 2C19 (P33261 whole entry): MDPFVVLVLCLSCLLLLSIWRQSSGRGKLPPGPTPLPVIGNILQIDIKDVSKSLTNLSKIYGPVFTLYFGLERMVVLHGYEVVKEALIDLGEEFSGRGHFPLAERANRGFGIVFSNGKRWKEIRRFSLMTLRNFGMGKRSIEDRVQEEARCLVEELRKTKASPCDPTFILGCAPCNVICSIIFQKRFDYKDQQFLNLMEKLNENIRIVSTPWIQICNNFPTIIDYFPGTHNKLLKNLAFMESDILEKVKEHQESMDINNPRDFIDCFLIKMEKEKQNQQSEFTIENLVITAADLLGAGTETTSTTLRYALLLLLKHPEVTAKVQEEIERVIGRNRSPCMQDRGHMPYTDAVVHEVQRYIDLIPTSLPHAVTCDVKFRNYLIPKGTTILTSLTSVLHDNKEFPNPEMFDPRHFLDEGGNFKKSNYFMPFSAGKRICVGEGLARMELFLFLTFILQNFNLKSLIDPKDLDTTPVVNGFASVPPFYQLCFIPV

AC50 (Cytochrome P450 2C19; read-out: AC50) | SMILES | EC50 [1] | EC50 [2] | AC50 (Cytochrome P450 2C19)
– | CCN(C(=O)c1cc2c(O)nc3ccc(C)cc3c2s1)c1ccccc1C | 857 nM (active) | > 60000 nM (not active) | –
– | COc1ccc(-c2cc(C3CCN(Cc4ccc([N+](=O)[O-])cc4)CC3)[nH]n2)cc1 | 1100 nM (active) | > 60000 nM (not active) | –
25100 nM (inconclusive) | CCCCOc1ccc(-c2nnn(CC(=O)c3c[nH]c4ccccc34)n2)cc1 | – | – | –
1780 nM (inconclusive) | CC(=O)Nc1ccc(-c2cc(-c3ccc(NC(C)=O)cc3)nc(-c3ccccc3)n2)cc1 | – | – | –
– | CCOC(=O)c1cnc2ccc(OCC)cc2c1N1CCN(c2ccccc2OC)CC1 | 1190 nM (active) | > 60000 nM (not active) | –
– | O=C(C1=C[C@H](C2CC2)C[C@H](OCc2ccc(CO)cc2)O1)N1CCN(Cc2ccccc2)CC1 | 541 nM (active) | > 60000 nM (not active) | –
– | N#Cc1cc2ccccc2nc1SCC(=O)Nc1ccc(S(=O)(=O)N2CCCC2)cc1 | 2830 nM (active) | 9370 nM (active) | –
– | O=C1Nc2ccccc2Oc2cc([N+](=O)[O-])ccc21 | 1460 nM (active) | 9780 nM (active) | –
– | Cc1ccc(-c2nnc(Nc3ccc(CC(N)=O)cc3)c3ccccc23)cc1 | 208 nM (active) | > 60000 nM (not active) | –
– | O=C(c1ccc(-c2ccccc2)cc1)C1CCCN(Cc2ccncc2)C1 (configuration not stated) | 1470 nM (active) | > 60000 nM (not active) | –
– | CN(C)CCCNC(=O)c1ccc(Cl)c(S(=O)(=O)N(C)c2ccccc2)c1 | 524 nM (active) | > 60000 nM (not active) | –
1000 nM (inconclusive) | COC(=O)c1c(-c2ccccc2)csc1NC(=O)CSc1ncnc2sc(C)c(C)c12 | – | – | –
– | CN(C)CCCN/C=C1/C(=O)N(Cc2ccc3c(c2)OCO3)C(=O)c2ccccc21 | < 100 nM (active) | 10100 nM (active) | –
– | OC(COc1ccc(OCC(O)CN2CCN(Cc3ccccc3)CC2)cc1)CN1CCN(Cc2ccccc2)CC1 (configuration not stated) | 789 nM (active) | > 60000 nM (not active) | –
– | CCN1CCN(Cc2cccc(Oc3ccccc3)c2)CC1 | 1440 nM (active) | > 30000 nM (not active) | –
– | O=C(CN1C(=O)COc2ccccc21)N(Cc1cccnc1)Cc1ccccc1F | 260 nM (active) | > 60000 nM (not active) | –
631 nM (inconclusive) | COc1cccc(C(CC(=O)Nc2cccc3ccccc23)NC(=O)c2ccccc2)c1 (configuration not stated) | – | – | –
20000 nM (inconclusive) | COC(=O)Cn1nc(-c2ccccc2)n(-c2ccccc2)c1=S | – | – | –
70.8 nM (inconclusive) | CCc1ccc(C(=O)COC(=O)C(Cc2ccccc2)NC(=O)C2CCC(C)CC2)cc1 (configuration not stated) | – | – | –
– | CC(C)CN(C(=O)c1ccc([N+](=O)[O-])s1)c1c(N)n(Cc2ccccc2)c(=O)[nH]c1=O | 783 nM (active) | > 60000 nM (not active) | –
– | CCN(CC)CCN(C(=O)c1ccc2c(c1)OCCO2)c1nc2ccc(C)cc2s1 | 457 nM (active) | > 60000 nM (not active) | –
– | CCCCCNc1nc(-c2ccccc2)nc(-n2ccnc2)n1 | 1550 nM (active) | > 60000 nM (inconclusive) | –
– | Cc1[nH]n(-c2ccc(S(=O)(=O)O)cc2)c(=O)c1/N=N\c1ccccc1 | – | – | inconclusive
– | O=[N+]([O-])c1ccccc1/C=N/N1CCN(c2ccncc2S(=O)(=O)N2CCCCC2)CC1 | 550 nM (active) | > 60000 nM (not active) | –
– | O=C(Cn1ccnc1[N+](=O)[O-])NCCO [ETANIDAZOLE] | – | – | inconclusive
